“And” between values parts separate entries of the source, which are not always exact repeats. Identical values can stand only once.
Legend:
bone marrow cells = conditions: cited from earlier work
[1] = Weights and survival (Example 4, SCI-04); format: in vivo, Syrian Golden Hamsters; parameters: Animal weight: unit not given here; conditions: for Animal weight: Group 2 (SCV-07 10 μg/kg, day −1 to day 20), individual animals
Procedure: (§1) All animals were weighed daily and their survival recorded, in order to assess possible differences in animal weight among treatment groups as an indication for mucositis severity and/or possible toxicity resulting from the treatments.
(§2) There were no significant differences in weight changes between study groups. The mean daily percent weight change data was evaluated. The saline treated control hamsters gained an average of 46.5% of their starting weight during the study. Hamsters in the group receiving SCV-07 at 10 μg/kg on days −1 to 20 gained an average of 51.3% of their starting weight during the study. Hamsters in the group receiving SCV-07 at 100 μg/kg on days −1 to 20 gained an average of 46.7% of their starting weight during the study. Hamsters in the group receiving SCV-07 at 1 mg/kg from day −1 to day 20 gained an average of 48.8% of their starting weight during the study. The significance of these differences was evaluated by calculating the area-under-the-curve (AUC) for the weight gain of each animal, and then comparing the different treatment groups using a One-Way ANOVA test.

[2] = Weights and survival (Example 3, SCI-03); format: in vivo, Syrian Golden Hamsters
Procedure: as §1
as §2, with “76.3%” for “46.5% of their starting weight during the study. Hamsters in the group receiving SCV-07 at 10 μg/kg on days −1 to 20 gained an average of 51.3%”, “29” for “20”, “80.7%” for “46.7%”, “100 μg/kg on days of radiation only” for “1 mg/kg from day −1 to day 20”, “66.3% of their starting weight during the study. Hamsters in the group receiving SCV-07 at 100 μg/kg on day −1, day 4, day 5 and days 10-29 gained an average of 69.7%” for “48.8%”

[3] = tested on: 5-FU-immune-suppressed animals; conditions: in vivo; cited from earlier work
spleen lymphocytes = conditions: cited from earlier work
[4] = individual animals, Group 4 (SCV-07 100 μg/kg on days −1, 4, 5 and 10-29), second part of table

In the case of `N[C@H](CCC(=O)N[C@@H](Cc1c[nH]c2ccccc12)C(=O)O)C(=O)O` [SCV-07, γ-D-glutamyl-L-tryptophan], the “expression of Thy-1.2 on bone marrow cells” value (bone marrow cells) is listed as “stimulates”, the “average weight gain, % of starting weight during the study” value (from here on “average weight gain, %”) ([1]; 10 ug/kg on days -1 to 20) is listed as 51.3% and the “average weight gain, %” value ([1]; 100 ug/kg on days -1 to 20) is listed as 46.7%. For the same molecule, the “average weight gain, %” value ([1]; 1 mg/kg from day -1 to day 20) was 48.8%, the Animal weight ([1]; day 0) was 77 (2×) and 102 and 84 and 80 and 94 and the Animal weight ([1]; day 1) was 74 and 101 and 83 and 80 and 76 and 91. For the same molecule, the Animal weight ([1]; day 2) was 78 and 104 and 89 and 86 and 77 and 94, the Animal weight ([1]; day 3) was 82 and 111 and 93 and 88 and 79 and 98 and the Animal weight ([1]; day 4) was 83 and 113 and 95 and 90 and 82 and 101. For the same molecule, the Animal weight ([1]; day 5) was 86 and 112 and 98 and 93 and 83 and 103, the Animal weight ([1]; day 6) was 88 and 114 and 101 and 96 and 84 and 106 and the Animal weight ([1]; day 7) was 90 and 117 and 103 and 98 and 86 and 108 and 80. For the same molecule, the Animal weight ([1]; day 8) was 92 and 121 and 106 and 101 and 88 and 109 and 83, the Animal weight ([1]; day 9) was 94 and 122 and 106 and 102 and 91 and 108 and 83 and the Animal weight ([1]; day 10) was 96 and 125 and 112 and 105 and 90 and 109 and 85. The Animal weight ([1]; day 11) was 98 and 125 and 111 and 105 and 92 and 109, the Animal weight ([1]; day 12) was 98 and 128 and 111 and 107 and 91 and 109 and the Animal weight ([1]; day 13) was 98 and 128 and 112 and 108 (2×) and 90. For the same molecule, the Animal weight ([1]; day 14) was 99 and 130 and 115 and 109 and 91 and 111, the Animal weight ([1]; day −1) was 77 and 101 and 85 and 82 and 76 and 94 and the “average weight gain, %” value ([2]; 100 ug/kg on day -1, day 4, day 5 and days 10-29) was 69.7%. The “average weight gain, %” value ([2]; 100 ug/kg on days -1 to 29) was 80.7%, the “average weight gain, %” value ([2]; 100 ug/kg on days of radiation only) was 66.3% and the “Animal weight, Day 18” value [2, 4] was 113 and 121 and 88 and 98. The “Animal weight, Day 19” value [2, 4] was 118 and 127 and 92 and 102, the “Animal weight, Day 20” value [2, 4] was 118 and 128 and 92 and 104 and the “Animal weight, Day 21” value [2, 4] was 119 and 131 and 94 and 109. The “Animal weight, Day 22” value [2, 4] was 120 and 133 and 95 and 109, the “Animal weight, Day 23” value [2, 4] was 120 and 135 and 97 and 111 and the “Animal weight, Day 24” value [2, 4] was 123 and 135 and 99 and 112. The “Animal weight, Day 25” value [2, 4] was 122 and 137 and 98 and 113, the “Animal weight, Day 26” value [2, 4] was 123 and 139 and 100 and 118 and the “Animal weight, Day 27” value [2, 4] was 127 and 140 and 102 and 121. For the same molecule, the “Animal weight, Day 28” value [2, 4] was 128 and 142 and 103 and 122, the “Animal weight, Day 29” value [2, 4] was 128 and 142 and 102 and 118 and the “Animal weight, Day 30” value [2, 4] was 132 and 146 and 105 and 126. The “Animal weight, Day 31” value [2, 4] was 134 and 150 and 108 and 126, the “Animal weight, Day 32” value [2, 4] was 134 and 149 and 109 and 129 and the “Animal weight, Day 33” value [2, 4] was 137 and 154 and 112 and 132. For the same molecule, the “Animal weight, Day 35” value [2, 4] was 140 and 154 and 113 and 134, the “Animal weight, Day 34” value ([2]; individual animals, Group 4 (SCV-07 100 μg/kg on days −1, 4, 5 and 10-29), second part of table, c18, day inferred as 34) was 139 and 153 and 112 and 133 and the “immunostimulatory effect on 5-FU-immune-suppressed animals” value [3] was “strong immunostimulatory effect”. The “IL-2 receptor expression by spleen lymphocytes” value (spleen lymphocytes; Con-A-induced) was “increases” and the “Con-A-induced interleukin-2 (IL-2) production” value (spleen lymphocytes; spleen lymphocytes) was “increases”.

Reference: patent US7906486B2, “Method of treating or preventing tissue deterioration, injury or damage due to disease of mucosa” (SciClone Pharmaceuticals, Inc., priority 2007, dated 2011)
